# Values of other authors as cited in patent publication US20200261389A1 (priority 2014, published 2020).
# Where two headings read alike, the source gives them in different places.
# How the values were obtained:
# [1] = tested on: zinc-dependent metalloproteinases; conditions: for reduction of GP shedding: higher concentrations (25-50 mM)
# retroviruses = conditions: millimolar concentrations, in vitro
# cultured cells = conditions: added to cultured cells
# [2] = tested on: Human Foreskin (HF) cells infected with HSV-2-strain G; conditions: 3 to 1.5 mM
smiles,measurement,setting,value
"c1cnc2c(c1)ccc1cccnc12 [1,10-phenanthroline]",apoptosis / cell death of leukemia cells,leukemia cells,DNA fragmentation and cell death occurred
CNC(=O)[C@@H](NC(=O)[C@H](CC(C)C)[C@H](O)C(=O)NO)C(C)(C)C [BB2516],inhibition of glycoprotein shedding,[1]; concentration of 0.5 mM,inhibitory effects were observed
COc1ccc(S(=O)(=O)N(Cc2cccnc2)[C@@H](C(=O)NO)C(C)C)cc1 [CGS-27023A],reduction of GP shedding,[1],reduced GP shedding
"O=C(O)CN(CCN(CC(=O)O)CC(=O)O)CC(=O)O [EDTA, ethylenediaminetetraacetic acid]",effect on retroviruses,retroviruses,partial disintegration of viral membranes
"O=C(O)CN(CCOCCOCCN(CC(=O)O)CC(=O)O)CC(=O)O [EGTA, ethylene glycol tetraacetic acid]",effect on retroviruses,retroviruses,partial disintegration of viral membranes
CNC(=O)[C@H](Cc1c[nH]c2ccccc12)NC(=O)[C@@H](CC(=O)NO)CC(C)C [GM6001],inhibition of glycoprotein shedding,[1]; concentration of 5 mM,inhibitory effects were observed
COc1ccc(S(=O)(=O)N(CC(=O)NO)CC(C)C)cc1 [MMP-3 inhibitor II],reduction of GP shedding,[1],reduced GP shedding
COc1ccc(S(=O)(=O)N2Cc3ccccc3C[C@@H]2C(=O)NO)cc1 [MMP-8 inhibitor I],inhibition of glycoprotein shedding,[1]; concentration of 5 mM,inhibitory effects were observed
CC(C)C[C@H](CC(=O)NO)C(=O)N[C@@H](Cc1ccc2ccccc2c1)C(=O)N[C@@H](C)C(=O)NCCN [TAPI-I],reduction of GP shedding,[1],reduced GP shedding
"c1ccc(CN(CCN(Cc2ccccn2)Cc2ccccn2)Cc2ccccn2)nc1 [TPEN, N,N,N′,N′-tetrakis-2-pyridyl methyl-ethylene diamine]",apoptosis of cultured cells,cultured cells,induces apoptosis
O=C(O)c1ccccn1 [picolinic acid],apoptosis of infected cells,[2],cause apoptosis of HF infected cells
same,apoptosis / cell death of leukemia cells,leukemia cells,induces apoptosis
